In patent publication US10294229B2, “Heteroaryl substituted aminopyridine compounds” (BRISTOL-MYERS SQUIBB COMPANY, priority 2015, dated 2019):
Where a name gives a salt, the structure may show the parent alone.

How the values were obtained:
IRAK4 = IRAK4 (Homo sapiens (Human), UniProt Q9NWZ3); experiment: IRAK4 Inhibition Assay; assay type: biochemical; conditions: ATP 500 μM; IRAK4 0.6 nM
Procedure, shortened: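 Mobility-shift kinase assay: 0.6 nM IRAK4, 500 μM ATP, 1.5 μM fluorescent peptide, 60 min, room temperature. Percent inhibition was normalised between enzyme-free and DMSO-only wells.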

[1] = Caco-2 Permeability Assay; assay type: in vitro ADME; conditions: human, Caco-2, test compound 3 μM
Description: Caco-2 Permeability Assay
Thirteen to 27 days prior to assay, Caco-2 cells were seeded onto collagen-coated polycarbonate filter membranes in 24-well transwell plates at a density of 1.45×10^5 cells/cm^2, approximately 4.8×10^4 cells per well. The cells were grown in a culture medium consisting of DMEM supplemented with 10% fetal bovine serum, 10 mM HEPES, 1% nonessential amino acids, 2 mM L-glutamine, 100 U/mL penicillin-G, and 100 μg/mL streptomycin. The culture medium was replaced every 3 days and the cells were maintained at 37° C. in a 95% relative humidity and 5% CO2 atmosphere. The cells were evaluated for tight junction formation just prior to assay. The test compound was solubilized to 10 mM in 100% DMSO and diluted to 3 μM in assay buffer. Permeability studies were initiated by adding 200 μL assay buffer plus/minus compound to the apical transwell compartment and 600 μL assay buffer plus/minus compound to the basolateral compartment of the 24-well transwell low-binding cluster plate. For apical-to-basolateral (A to B) permeability (absorptive direction), buffer containing compound was placed in the apical compartment (donor wells), while buffer alone was placed in the corresponding basolateral compartments (receiver wells). For basolateral-to-apical (B to A) permeability (secretive direction), buffer containing compound was placed in the basolateral compartment (donor wells), while buffer alone was placed in the corresponding apical compartments (receiver wells). Transwells were then incubated for 2 hours at 37° C. in a 95% relative humidity and 5% CO2 atmosphere with gentle agitation. Following incubation, 100 μL was removed from each apical and basolateral compartment and transferred to 96-well low binding plates that had been previously loaded with 100 μL/well of acetonitrile containing 250 nM propranolol, 250 nM diclofenac, and 500 nM tolbutamide as internal standards. The samples were subsequently analyzed by LC-MS/MS to determine concentrations of compound.

[2] = test system: Human whole blood stimulated with a TLR2 agonist (lipoteichoic acid), IL-6 levels; experiment: IRAK4 Whole Blood Assay; assay type: cell-based; conditions: lipoteichoic acid 10 μg/mL
Procedure, shortened: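 IL-6 was quantified by cytometric bead assay in supernatants of human blood (ACD-A) stimulated for 5 h with lipoteichoic acid at 10 μg/mL final. Compound exposure preceded stimulation for 60 min at 37 °C, 5% CO2.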

Sequence of IRAK4 (Q9NWZ3 whole entry, species assumed): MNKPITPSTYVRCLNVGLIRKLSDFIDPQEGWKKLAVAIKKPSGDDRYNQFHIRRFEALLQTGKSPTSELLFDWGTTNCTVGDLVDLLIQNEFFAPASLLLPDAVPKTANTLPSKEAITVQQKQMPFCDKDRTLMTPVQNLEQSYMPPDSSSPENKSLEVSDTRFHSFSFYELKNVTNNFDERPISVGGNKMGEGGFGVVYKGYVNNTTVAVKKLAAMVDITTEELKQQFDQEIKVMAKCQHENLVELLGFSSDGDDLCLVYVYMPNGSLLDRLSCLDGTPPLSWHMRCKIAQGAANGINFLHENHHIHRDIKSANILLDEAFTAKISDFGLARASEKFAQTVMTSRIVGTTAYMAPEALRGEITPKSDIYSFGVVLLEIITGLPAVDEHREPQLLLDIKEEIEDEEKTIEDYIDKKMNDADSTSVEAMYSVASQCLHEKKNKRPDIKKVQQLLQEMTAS

IC50 (IRAK4) [nM]	Papp at 2 h, 3 µM [1] [×10⁻⁶ cm/s]	EC50 ([2]; Homo sapiens) [nM]	EC50 [2] [nM]	Structure (SMILES)
2	9.7	430	–	CC(C)(O)CCc1cn(-c2cnc(-n3ncc4cc(C#N)cnc43)cc2NC2CCC(F)(F)C2)nn1 (single isomer, unassigned) [Example 347, 1-(4-((3,3-difluorocyclopentyl)amino)-5-(4-(3-hydroxy-3-methylbutyl)-1H-1,2,3-triazol-1-yl)pyridin-2-yl)-1H-pyrazolo[3,4-b]pyridine-5-carbonitrile]
6	36.1	–	110	CC(F)Cn1cc(-c2cnc(-n3ncc4cc(C#N)cnc43)cc2NC(C)C)nn1 (single isomer, unassigned; enantiomer 1) [Example 166, 1-(5-(1-(2-fluoropropyl)-1H-1,2,3-triazol-4-yl)-4-(isopropylamino)pyridin-2-yl)-1H-pyrazolo[3,4-b]pyridine-5-carbonitrile, enantiomer 1]
2	33	560	–	CC(C)Nc1cc(-n2ccc3cncnc32)ncc1-c1cn(CCN2CCOCC2)nn1 [Example 3, N-isopropyl-5-(1-(2-morpholinoethyl)-1H-1,2,3-triazol-4-yl)-2-(7H-pyrrolo[2,3-d]pyrimidin-7-yl)pyridin-4-amine]
3	< 1.5	2530	–	CC(C)Nc1cc(-n2ccc3cncnc32)ncc1-c1cn([C@@H]2CCNC[C@H]2O)nn1 [Example 4, (3R,4R)-4-(4-(4-(isopropylamino)-6-(7H-pyrrolo[2,3-d]pyrimidin-7-yl)pyridin-3-yl)-1H-1,2,3-triazol-1-yl)piperidin-3-ol]
5	1.7	1450	–	CC(C)Nc1cc(-n2ccc3cncnc32)ncc1-c1cn([C@H]2CCNC[C@H]2O)nn1 [Example 6, (3R,4S)-4-(4-(4-(isopropylamino)-6-(7H-pyrrolo[2,3-d]pyrimidin-7-yl)pyridin-3-yl)-1H-1,2,3-triazol-1-yl)piperidin-3-ol]
7	3.9	4120	–	CC(C)Nc1cc(-n2ccc3cncnc32)ncc1-c1cn([C@@H]2CCNC[C@@H]2O)nn1 [Example 7, (3S,4R)-4-(4-(4-(isopropylamino)-6-(7H-pyrrolo[2,3-d]pyrimidin-7-yl)pyridin-3-yl)-1H-1,2,3-triazol-1-yl)piperidin-3-ol]
3	5.5	400	–	CC(C)CCn1cc(-c2cnc(-n3ncc4cc(C#N)cnc43)cc2NC(C)C)nn1 [Example 10, 1-(5-(1-isopentyl-1H-1,2,3-triazol-4-yl)-4-(isopropylamino)pyridin-2-yl)-1H-pyrazolo[3,4-b]pyridine-5-carbonitrile, TFA]
11	2.8	1950	–	CC(C)Nc1cc(-n2ncc3cc(C#N)cnc32)ncc1-c1cn(CCO)nn1 [Example 11, 1-(5-(1-(2-hydroxyethyl)-1H-1,2,3-triazol-4-yl)-4-(isopropylamino)pyridin-2-yl)-1H-pyrazolo[3,4-b]pyridine-5-carbonitrile]
4	23.4	310	–	CC(C)Nc1cc(-n2ncc3cc(C#N)cnc32)ncc1-c1cn(CCN2CCOCC2)nn1 [Example 12, 1-(4-(isopropylamino)-5-(1-(2-morpholinoethyl)-1H-1,2,3-triazol-4-yl)pyridin-2-yl)-1H-pyrazolo[3,4-b]pyridine-5-carbonitrile]
3	22.9	270	–	N#Cc1cnc2c(cnn2-c2cc(NC3CC3)c(-c3cn(CCN4CCOCC4)nn3)cn2)c1 [Example 13, 1-(4-(cyclopropylamino)-5-(1-(2-morpholinoethyl)-1H-1,2,3-triazol-4-yl)pyridin-2-yl)-1H-pyrazolo[3,4-b]pyridine-5-carbonitrile]
3	4.1	490	–	N#Cc1cnc2c(cnn2-c2cc(NC3CC3)c(-c3cn(CCO)nn3)cn2)c1 [Example 14, 1-(4-(cyclopropylamino)-5-(1-(2-hydroxyethyl)-1H-1,2,3-triazol-4-yl)pyridin-2-yl)-1H-pyrazolo[3,4-b]pyridine-5-carbonitrile]
5	14	850	–	CC(C)Nc1cc(-n2ncc3cc(C#N)cnc32)ncc1-c1cn(CC2CC2)nn1 [Example 16, 1-(5-(1-(cyclopropylmethyl)-1H-1,2,3-triazol-4-yl)-4-(isopropylamino)pyridin-2-yl)-1H-pyrazolo[3,4-b]pyridine-5-carbonitrile]
4	4.2	320	–	CC(C)Nc1cc(-n2ncc3cc(C#N)cnc32)ncc1-c1cn(C2CCN(C)C2=O)nn1 (stereo not drawn) [Example 21, 1-(4-(isopropylamino)-5-(1-(1-methyl-2-oxopyrrolidin-3-yl)-1H-1,2,3-triazol-4-yl)pyridin-2-yl)-1H-pyrazolo[3,4-b]pyridine-5-carbonitrile]
2	4.9	800	–	CC(C)Nc1cc(-n2ncc3cc(C#N)c(N)nc32)ncc1-c1cn(C2CCCCC2)nn1 [Example 25, 6-amino-1-(5-(1-cyclohexyl-1H-1,2,3-triazol-4-yl)-4-(isopropylamino)pyridin-2-yl)-1H-pyrazolo[3,4-b]pyridine-5-carbonitrile]
4	< 1.5	380	–	CC(C)Nc1cc(-n2ncc3cc(C#N)c(N)nc32)ncc1-c1cn(CCCO)nn1 [Example 29, 6-amino-1-(5-(1-(3-hydroxypropyl)-1H-1,2,3-triazol-4-yl)-4-(isopropylamino)pyridin-2-yl)-1H-pyrazolo[3,4-b]pyridine-5-carbonitrile]
4	22.5	160	–	CCCn1cc(-c2cnc(-n3ncc4cc(C#N)cnc43)cc2NC(C)C)nn1 [Example 30, 1-(4-(isopropylamino)-5-(1-propyl-1H-1,2,3-triazol-4-yl)pyridin-2-yl)-1H-pyrazolo[3,4-b]pyridine-5-carbonitrile]
3	16.7	3720	–	CCCn1cc(-c2cnc(-n3ncc4cc(C#N)c(N)nc43)cc2NC(C)C)nn1 [Example 33, 6-amino-1-(4-(isopropylamino)-5-(1-propyl-1H-1,2,3-triazol-4-yl)pyridin-2-yl)-1H-pyrazolo[3,4-b]pyridine-5-carbonitrile]
4	48.1	660	–	CCCn1cc(-c2cnc(-n3ncc4cc(C#N)cnc43)cc2NC2CC2)nn1 [Example 34, 1-(4-(cyclopropylamino)-5-(1-propyl-1H-1,2,3-triazol-4-yl)pyridin-2-yl)-1H-pyrazolo[3,4-b]pyridine-5-carbonitrile]
3	23.7	460	–	CCCn1cc(-c2cnc(-n3ncc4cc(C#N)c(N)nc43)cc2NC2CC2)nn1 [Example 35, 6-amino-1-(4-(cyclopropylamino)-5-(1-propyl-1H-1,2,3-triazol-4-yl)pyridin-2-yl)-1H-pyrazolo [3,4-b]pyridine-5-carbonitrile]
5	33.9	160	–	CCn1cc(-c2cnc(-n3ncc4cc(C#N)cnc43)cc2NC(C)C)nn1 [Example 37, 1-(5-(1-ethyl-1H-1,2,3-triazol-4-yl)-4-(isopropylamino)pyridin-2-yl)-1H-pyrazolo[3,4-b]pyridine-5-carbonitrile]
